Laboratory results: PMC12583498, “Distinct filament morphology and membrane tethering features of the dual FtsZ paralogs in Odinarchaeota” (The EMBO journal, 2025)
Blank lines part the entries; values can stand above or below the molecule they belong to.

Experiments:
[1] = target: T1, OdinFtsZ1 (Candidatus Odinarchaeum yellowstonii, UniProt A0AAF0ID74); test: cryo-EM structure of filament; assay type: binding; conditions: […] GMPCPP, […] MgCl2, pH […], on ice; nucleotide pocket at subunit interface; map resolution […] A
T1 construct: full length (363 residues by primer name), synthetic gene, 6His-bdSUMO tag cleaved by Ulp protease, E. coli BL21(DE3); residues 34-332 modelled in cryo-EM
T1 sequence (A0AAF0ID74 1-360): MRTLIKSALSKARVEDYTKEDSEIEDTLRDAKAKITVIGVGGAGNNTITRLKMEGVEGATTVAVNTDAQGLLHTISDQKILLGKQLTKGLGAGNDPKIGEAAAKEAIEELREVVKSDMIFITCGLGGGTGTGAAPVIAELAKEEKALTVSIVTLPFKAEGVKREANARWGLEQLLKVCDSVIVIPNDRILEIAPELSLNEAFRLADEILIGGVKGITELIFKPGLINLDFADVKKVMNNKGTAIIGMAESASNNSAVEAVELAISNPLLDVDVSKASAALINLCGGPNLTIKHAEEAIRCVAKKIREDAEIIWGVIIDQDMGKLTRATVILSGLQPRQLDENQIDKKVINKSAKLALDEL

[2] = target: T2, OdinFtsZ2 (Candidatus Odinarchaeum yellowstonii, UniProt A0AAF0D3V8); test: […] degree light scattering and TEM / cryo-EM of polymerization; assay type: biochemical; conditions: […] GTP, […] Mg2+, pH […] KCl, […] °C; nucleotide-dependent assembly
T2 construct: gene ftsZ; full length, synthetic gene, 6His-bdSUMO tag cleaved by Ulp protease, E. coli BL21(DE3); assembles into stacked rings
T2 sequence (A0AAF0D3V8 1-402): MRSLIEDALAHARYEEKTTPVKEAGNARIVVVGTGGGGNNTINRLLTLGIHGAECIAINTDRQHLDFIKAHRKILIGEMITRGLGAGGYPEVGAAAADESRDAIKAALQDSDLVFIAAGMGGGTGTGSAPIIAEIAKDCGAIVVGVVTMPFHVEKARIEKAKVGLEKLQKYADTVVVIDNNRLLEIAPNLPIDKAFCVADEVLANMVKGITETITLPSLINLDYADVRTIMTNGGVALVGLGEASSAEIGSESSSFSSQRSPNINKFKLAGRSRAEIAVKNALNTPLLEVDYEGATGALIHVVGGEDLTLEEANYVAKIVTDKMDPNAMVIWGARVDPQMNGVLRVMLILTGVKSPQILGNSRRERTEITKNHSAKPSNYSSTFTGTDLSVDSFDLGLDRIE

[3] = target: T1, OdinFtsZ1; test: light scattering and sedimentation assay of polymerization; assay type: biochemical; conditions: […] GTP, […] Mg2+, pH […] KCl, […] °C
[4] = target: T2, OdinFtsZ2; test: negative-stain TEM of polymerization; assay type: biochemical; conditions: […] nucleotide, […] MgCl2, pH […] KCl, […] °C
[5] = target: OdinSepF (Candidatus Odinarchaeum yellowstonii LCB_4); test: SEC-MALS; Superdex 75 Increase 10/300 GL, HK50 buffer (50 mM HEPES pH 7.4, 50 mM KCl), room temperature, OdinSepF 2 mg/ml, 100 μl

Molecule: Nc1nc2c(ncn2[C@@H]2O[C@H](COP(=O)(O)CP(=O)(O)OP(=O)(O)O)[C@@H](O)[C@H]2O)c(=O)[nH]1 [GMPCPP]
cryo-EM structure of filament [1]: A non-protein density was detected within the nucleotide-binding pocket using Servalcat

Molecule: Nc1nc2c(ncn2[C@@H]2O[C@H](COP(=O)(O)OP(=O)(O)OP(=O)(O)O)[C@@H](O)[C@H]2O)c(=O)[nH]1 [GTP]
90 degree light scattering and TEM / cryo-EM of polymerization [2]: OdinFtsZ2 formed highly curved, stacked ring-like structures when provided with GTP or GTPγS
light scattering and sedimentation assay of polymerization [3]: GTP addition significantly enhanced the amount of OdinFtsZ1 in the pellet fraction

Molecule: Nc1nc2c(ncn2[C@@H]2O[C@H](COP(=O)(O)OP(=O)(O)OP(O)(O)=S)[C@@H](O)[C@H]2O)c(=O)[nH]1 [GTPγS]
negative-stain TEM of polymerization [4]: OdinFtsZ2 formed highly curved, stacked ring-like structures when provided with GTP or GTPγS

stoichiometry N [5]: 2
Molecule: OdinSepF (natural protein)
